Paper PMC10783034, “Pharmacokinetic and pharmacodynamic evaluation of the atypical tetracyclines chelocardin and amidochelocardin in murine infection models” (Microbiology Spectrum, 2023)
In brackets after ≈: the same amount, converted by molar mass. Several values for one entry are separate records, joined by “and”; a condition that tells them apart may be missing. Equal entries are not always repeated. Entries after “also recorded” stand apart in the source; their conditions may differ.

How the values were obtained:
[1] = Histopathological analysis of kidneys and livers after high-dose IV administration; type: in vivo, mice; conditions: 30 mg/kg IV; for histopathological examination of liver / kidney tissue discoloration: 24 hours after treatment; for overall acute toxicity assessment: high-dose groups
Method: The sustained high urine concentrations observed for CDCHD at 15 mg/kg IV raised the concern that accumulation might occur. We therefore performed histopathological analysis of livers and kidneys. A dose of 30 mg/kg of CHD and CDCHD was administered intravenously, and livers and kidneys were examined 24 hours after treatment to investigate signs of acute toxicity.
CHD and CDCHD were administered in single PK studies at the doses of 15 mg/kg and 30 mg/kg IV, at 15 mg/kg SC, and 15 mg/kg PO. Up to 25 µL of blood was collected from the lateral tail vein (n = 3 per time point) and time points t = 0.5, 1, 2, 4, and 8 hours. For 15 mg/kg IV- and PO-administered compounds, blood was also collected at time points t = 24 and 48 hours. For IV- and SC-administered compounds, blood was also collected at t = 0.25 hours. At t = 24 hours (15 mg/kg SC, 30 mg/kg IV) or 72 hours (15 mg/kg IV and PO), animals were euthanized to collect blood. At every blood collection, time point spontaneous urine was collected as well. Whole blood was collected into Eppendorf tubes coated with 0.5 M EDTA and immediately spun down at 15,870× g for 10 min at 4°C. Then, plasma was transferred into a new Eppendorf tube and stored at −80°C until analysis.
Approximately 3 µm thick sections of formalin-fixed, paraffin-embedded samples of liver and kidney were analyzed blinded, and randomized to the experimental groups by a trained veterinarian. […] Kidneys were analyzed for changes in the glomeruli (not found), tubular dilation (1 = mild or up to 20% of tubuli affected, 2 = moderate or 25-40% of tubuli affected, 3 = severe 50% or more), and inflammatory infiltrate in the pelvis (1 = mild, 2 = moderate, 3 = severe).

A. baumannii DSM-30008 = assay: MIC determination; type: cell-based; conditions: MHB medium
Method: (§1) The assay was conducted as described previously ([54]) with the following modifications. The MIC was tested against the K. pneumoniae strain ATCC 43816 in an MHB (not cation-adjusted) medium. CHD and CDCHD were tested in concentrations ranging from 0.078 to 10 µg/mL. Moreover, the MIC was determined for the following strains: K. pneumoniae DSM-30104, E. faecium DSM-20477, S. aureus DSM-346, P. aeruginosa DSM-11128, A. baumannii DSM-30008, E. aerogenes DSM-30053, E. coli ATCC 25922, and E. coli C175-94. All strains were grown in MHB medium, except for E. faecium, which was grown in TSB. CHD, epi-CDH, and CDCHD were tested in concentrations ranging from 0.125 to 64 µg/mL as described previously ([19]).

P. aeruginosa DSM-11128 = assay: MIC determination; type: cell-based; conditions: MHB medium
Method: as §1

S. aureus DSM-346 = assay: MIC determination; type: cell-based; conditions: MHB medium
Method: as §1

E. faecium DSM-20477 = assay: MIC determination; type: cell-based; conditions: TSB medium
Method: as §1

E. coli C175-94 = assay: MIC determination; type: cell-based; conditions: MHB medium
Method: as §1

E. aerogenes DSM-30053 = assay: MIC determination; type: cell-based; conditions: MHB medium
Method: as §1

E. coli ATCC 25922 = assay: MIC determination; type: cell-based; conditions: MHB medium
Method: as §1

K. pneumoniae DSM-30104 = assay: MIC determination; type: cell-based; conditions: MHB medium
Method: as §1

Cc1ccc2c(C)c3c(c(O)c2c1O)C(=O)C1(O)C(=O)C(C(N)=O)=C(O)C(N)C1C3 (stereo not shown) [CDCHD, 2-carboxamido-2-deacetyl-chelocardin]
histopathological examination of liver [1]: sporadic extramedullary erythropoiesis and thrombopoiesis; also recorded: a moderate reduction of glycogen, moderate anisokaryosis, and a moderate amount of double-nucleated cells | kidney tissue discoloration [1]: yellow tissue discoloration | overall acute toxicity assessment [1]: no immediate toxicity red flags | MIC (A. baumannii DSM-30008): 8 mg/L (≈ 19.4 µM) | MIC (P. aeruginosa DSM-11128): 16 mg/L (≈ 38.8 µM) | MIC (S. aureus DSM-346): 2 mg/L (≈ 4.85 µM) | MIC (E. faecium DSM-20477): 2 mg/L (≈ 4.85 µM) | MIC (E. coli C175-94): 2 to 4 mg/L | MIC (E. aerogenes DSM-30053): 8 mg/L (≈ 19.4 µM) | MIC (E. coli ATCC 25922): 2 µg/ml and ~ 2 µg/ml | MIC (K. pneumoniae DSM-30104): 1 mg/L (≈ 2.42 µM)

CC(=O)C1=C(O)[C@H](N)[C@@H]2Cc3c(c(O)c4c(O)c(C)ccc4c3C)C(=O)[C@]2(O)C1=O [CHD, chelocardin]
histopathological examination of liver [1]: sporadic extramedullary erythropoiesis and thrombopoiesis | kidney tissue discoloration [1]: yellow tissue discoloration | overall acute toxicity assessment [1]: no immediate toxicity red flags | MIC (A. baumannii DSM-30008): 16 mg/L (≈ 38.9 µM) | MIC (P. aeruginosa DSM-11128): > 64 mg/L | MIC (S. aureus DSM-346): 4 mg/L (≈ 9.72 µM) | MIC (E. faecium DSM-20477): 4 mg/L (≈ 9.72 µM) | MIC (E. coli C175-94): 2 mg/L (≈ 4.86 µM) | MIC (E. aerogenes DSM-30053): 32 mg/L (≈ 77.8 µM) | MIC (E. coli ATCC 25922): 2 µg/ml and ~ 2 µg/ml | MIC (K. pneumoniae DSM-30104): 2 to 4 mg/L
